Laboratory results published in patent US12415803B2, “Fused imidazopyridines as reversible inhibitors of Brutons Tyrosine Kinase (BTK)” (Merck Patent GmbH, priority 2018, dated 2025).

What was measured:
[1] = molecular target: full-length human BTK (Homo sapiens (Human), UniProt Q06187); assay: BTK IC50 Enzyme Assay (microfluidic off-chip mobility shift kinase assay); assay type: biochemical; conditions: Btk Enzymatic IC50 Assay, 90 min at 27 C;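 also: Read-out separates phosphorylated peptide product from substrate by their charge-to-mass difference, with IC50 fitted from log inhibitor concentration against percent enzyme activity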
Chain of full-length human BTK (Q06187 whole entry): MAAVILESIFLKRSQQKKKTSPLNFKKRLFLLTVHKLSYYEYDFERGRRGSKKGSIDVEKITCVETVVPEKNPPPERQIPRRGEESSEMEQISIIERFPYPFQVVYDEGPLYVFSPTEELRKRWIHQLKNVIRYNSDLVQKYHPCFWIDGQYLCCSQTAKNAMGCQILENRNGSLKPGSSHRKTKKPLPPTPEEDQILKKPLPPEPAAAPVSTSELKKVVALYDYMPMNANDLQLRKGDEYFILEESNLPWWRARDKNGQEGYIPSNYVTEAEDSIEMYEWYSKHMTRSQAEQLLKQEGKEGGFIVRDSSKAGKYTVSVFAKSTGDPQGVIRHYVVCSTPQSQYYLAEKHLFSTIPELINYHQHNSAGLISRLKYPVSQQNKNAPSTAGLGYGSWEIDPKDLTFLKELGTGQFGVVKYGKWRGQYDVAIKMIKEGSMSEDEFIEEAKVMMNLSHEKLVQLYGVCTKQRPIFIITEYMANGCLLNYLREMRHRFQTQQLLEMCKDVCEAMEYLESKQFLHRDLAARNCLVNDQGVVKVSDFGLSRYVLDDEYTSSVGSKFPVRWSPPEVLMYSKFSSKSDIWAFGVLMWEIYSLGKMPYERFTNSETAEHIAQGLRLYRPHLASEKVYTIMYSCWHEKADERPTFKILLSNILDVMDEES

[2] = molecular target: T1, Btk (Homo sapiens (Human), UniProt Q06187); assay: Btk PBMC IC50 Cell Assay (anti-IgM-induced CD69 expression on B cells); assay type: cell-based; conditions: anti-IgM-induced CD69 expression on CD19 positive cells in human PBMCs;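 also: freshly isolated human PBMCs, IC50 from concentration-response of the share of CD19+ cells expressing CD69 after anti-IgM BCR stimulation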
T1 sequence (Q06187 whole entry): as above

[3] = molecular target: T1, Btk; assay: Time Dependent Human Whole Blood IC50 Assay; assay type: cell-based; conditions: read-out: Assay C (IC50)

IC50 [1] [nM] | IC50 [2] [nM] | IC50 [3] [nM] | SMILES
< 1 | 1 to 10 | 10 to 100 | Cc1nn(C)c(C)c1-c1nc2c(-c3ccc4c(c3)CCC[C@H]4NC(=O)c3nc(C(C)(C)C)no3)ccnc2[nH]1 [Compound 74, 3-tert-butyl-N-[(1R)-6-[2-(1,3,5-trimethyl-1H-pyrazol-4-yl)-3H-imidazo[4,5-b]pyridin-7-yl]-1,2,3,4-tetrahydronaphthalen-1-yl]-1,2,4-oxadiazole-5-carboxamide]
< 1 | 10 to 100 | 10 to 100 | CCc1cc(-c2nc3c(-c4ccc5c(c4)CCCC5NC(=O)c4nc(C(C)(C)C)no4)ccnc3[nH]2)nn1C (stereo not drawn) [Compound 108, 3-tert-Butyl-[1,2,4]oxadiazole-5-carboxylic acid {6-[2-(5-ethyl-1-methyl-1H-pyrazol-3-yl)-3H-imidazo[4,5-b]pyridin-7-yl]-1,2,3,4-tetrahydro-naphthalen-1-yl}-amide]
< 1 | 1 to 10 | 1 to 10 | Cc1nn(C(C)C)cc1-c1nc2c(-c3ccc4c(c3)CCCCC4NC(=O)c3nc(C4(C)CC4)no3)ccnc2[nH]1 (stereo not drawn) [Compound 134, 3-(1-Methyl-cyclopropyl)-[1,2,4]oxadiazole-5-carboxylic acid {2-[2-(1-isopropyl-3-methyl-1H-pyrazol-4-yl)-3H-imidazo[4,5-b]pyridin-7-yl]-6,7,8,9-tetrahydro-5H-benzocyclohepten-5-yl}-amide]
< 1 | 1 to 10 | 10 to 100 | Cc1nn(C)c(C)c1-c1nc2nccc(-c3ccc4c(c3)CCCC[C@H]4NC(=O)c3cc(C(C)(C)C)on3)c2[nH]1 [Compound 72]
1 to 10 | 10 to 100 | 10 to 100 | CC(C)n1cc(-c2nc3nccc(-c4ccc5c(c4)CCCC[C@@H]5NC(=O)c4nc(C(C)(C)C)no4)c3[nH]2)cn1 [Compound 81, 3-tert-butyl-N-[(5S)-2-{2-[1-(propan-2-yl)-1H-pyrazol-4-yl]-1H-imidazo[4,5-b]pyridin-7-yl}-6,7,8,9-tetrahydro-5H-benzo[7]annulen-5-yl]-1,2,4-oxadiazole-5-carboxamide]
< 1 | 1 to 10 | 1 to 10 | CCn1nc(C)c(-c2nc3c(-c4ccc5c(c4)CCCCC5NC(=O)c4nc(C5(C)CC5)no4)ccnc3[nH]2)c1C (stereo not drawn) [Compound 135, 3-(1-Methyl-cyclopropyl)-[1,2,4]oxadiazole-5-carboxylic acid {2-[2-(1-ethyl-3,5-dimethyl-1H-pyrazol-4-yl)-3H-imidazo[4,5-b]pyridin-7-yl]-6,7,8,9-tetrahydro-5H-benzocyclohepten-5-yl}-amide]
< 1 | 1 to 10 | 1 to 10 | CC(C)(C)c1noc(C(=O)NC2CCCCc3cc(-c4ccnc5[nH]c(-c6cnn(C7CC7)c6)nc45)ccc32)n1 (stereo not drawn) [Compound 83, 3-tert-butyl-N-{2-[2-(1-cyclopropyl-1H-pyrazol-4-yl)-3H-imidazo[4,5-b]pyridin-7-yl]-6,7,8,9-tetrahydro-5H-benzo[7]annulen-5-yl}-1,2,4-oxadiazole-5-carboxamide]
< 1 | 1 to 10 | 1 to 10 | Cc1c(-c2nc3c(-c4ccc5c(c4)CCC[C@@H]5NC(=O)c4noc(C(C)(C)C)n4)ccnc3[nH]2)cnn1C1CCOCC1 [Compound 157, 5-tert-Butyl-[1,2,4]oxadiazole-3-carboxylic acid ((S)-6-{2-[5-methyl-1-(tetrahydro-pyran-4-yl)-1H-pyrazol-4-yl]-3H-imidazo[4,5-b]pyridin-7-yl}-1,2,3,4-tetrahydro-naphthalen-1-yl)-amide]
< 1 | 1 to 10 | 1 to 10 | Cc1nn(C)c(C)c1-c1nc2c(-c3ccc4c(c3)CCCC[C@H]4NC(=O)c3nc(C(C)(C)C)no3)ccnc2[nH]1 [Compound 142, 3-tert-Butyl-[1,2,4]oxadiazole-5-carboxylic acid {(R)-2-[2-(1,3,5-trimethyl-1H-pyrazol-4-yl)-3H-imidazo[4,5-b]pyridin-7-yl]-6,7,8,9-tetrahydro-5H-benzocyclohepten-5-yl}-amide]

Further lines, the compound ahead of its results:

SMILES | IC50 [1] [nM] | IC50 [2] [nM] | IC50 [3] [nM]
Cc1c(-c2nc3c(-c4ccc5c(c4)CCCCC5NC(=O)c4nc(C(C)(C)C)no4)ccnc3[nH]2)cnn1C(C)C (stereo not drawn) [Compound 136, 3-tert-Butyl-[1,2,4]oxadiazole-5-carboxylic acid {2-[2-(1-isopropyl-5-methyl-1H-pyrazol-4-yl)-3H-imidazo[4,5-b]pyridin-7-yl]-6,7,8,9-tetrahydro-5H-benzocyclohepten-5-yl}-amide] | < 1 | 1 to 10 | 10 to 100
Cc1nn(C2CCOCC2)c(C)c1-c1nc2c(-c3ccc4c(c3)CCCC4NC(=O)c3nc(C(C)(C)C)no3)ccnc2[nH]1 (stereo not drawn) [Compound 140, 3-tert-Butyl-[1,2,4]oxadiazole-5-carboxylic acid (6-{2-[3,5-dimethyl-1-(tetrahydro-pyran-4-yl)-1H-pyrazol-4-yl]-3H-imidazo[4,5-b]pyridin-7-yl}-1,2,3,4-tetrahydro-naphthalen-1-yl)-amide] | < 1 | 10 to 100 | > 100
Cc1c(-c2nc3c(-c4ccc5c(c4)CCCC[C@H]5NC(=O)c4nc(C(C)(C)C)no4)ccnc3[nH]2)cnn1C(C)C [Compound 160, 3-tert-Butyl-[1,2,4]oxadiazole-5-carboxylic acid {(R)-2-[2-(1-isopropyl-5-methyl-1H-pyrazol-4-yl)-3H-imidazo[4,5-b]pyridin-7-yl]-6,7,8,9-tetrahydro-5H-benzocyclohepten-5-yl}-amide] | < 1 | 1 to 10 | 1 to 10
Cc1cc(-c2nc3c(-c4ccc5c(c4)CCCCC5NC(=O)c4nnc(C(C)(C)C)o4)ccnc3[nH]2)nn1C (stereo not drawn) [Compound 3, 5-tert-butyl-N-[2-[2-(1,5-dimethyl-1H-pyrazol-3-yl)-3H-imidazo[4,5-b]pyridin-7-yl]-6,7,8,9-tetrahydro-5H-benzo[7]annulen-5-yl]-1,3,4-oxadiazole-2-carboxamide] | < 1 | 1 to 10 | 1 to 10
Cc1nn(C)c(C)c1-c1nc2c(-c3ccc4c(c3)CCCCC4NC(=O)c3noc(C4(C)CC4)n3)ccnc2[nH]1 (stereo not drawn) [Compound 11, 5-(1-Methyl-cyclopropyl)-[1,2,4]oxadiazole-3-carboxylic acid {2-[2-(1,3,5-trimethyl-1H-pyrazol-4-yl)-3H-imidazo[4,5-b]pyridin-7-yl]-6,7,8,9-tetrahydro-5H-benzocyclohepten-5-yl}-amide] | < 1 | 1 to 10 | 10 to 100
Cc1c(-c2nc3c(-c4ccc5c(c4)CCC[C@@H]5NC(=O)c4noc(C(C)(C)C)n4)ccnc3[nH]2)cnn1C(C)C [Compound 165, 5-tert-Butyl-[1,2,4]oxadiazole-3-carboxylic acid {(S)-6-[2-(1-isopropyl-5-methyl-1H-pyrazol-4-yl)-3H-imidazo[4,5-b]pyridin-7-yl]-1,2,3,4-tetrahydro-naphthalen-1-yl}-amide] | < 1 | 1 to 10 | 10 to 100
Cc1c(-c2nc3c(-c4ccc5c(c4)CCCCC5NC(=O)c4nc(C5(C)CC5)no4)ccnc3[nH]2)cnn1C(C)C (stereo not drawn) [Compound 26, 3-(1-Methyl-cyclopropyl)-[1,2,4]oxadiazole-5-carboxylic acid {2-[2-(1-isopropyl-5-methyl-1H-pyrazol-4-yl)-3H-imidazo[4,5-b]pyridin-7-yl]-6,7,8,9-tetrahydro-5H-benzocyclohepten-5-yl}-amide] | 1 to 10 | 1 to 10 | 10 to 100
Cc1c(-c2nc3c(-c4ccc5c(c4)CCCC5NC(=O)c4nc(C(C)(C)C)no4)ccnc3[nH]2)cnn1C (stereo not drawn) [Compound 111, 3-tert-Butyl-[1,2,4]oxadiazole-5-carboxylic acid {6-[2-(1,5-dimethyl-1H-pyrazol-4-yl)-3H-imidazo[4,5-b]pyridin-7-yl]-1,2,3,4-tetrahydro-naphthalen-1-yl}-amide] | 1 to 10 | 1 to 10 | > 100
Cc1nn(C)c(C)c1-c1nc2c(-c3ccc4c(c3)CCCC[C@H]4NC(=O)c3noc(C4(C)CC4)n3)ccnc2[nH]1 [Compound 12, 5-(1-Methyl-cyclopropyl)-[1,2,4]oxadiazole-3-carboxylic acid {(R)-2-[2-(1,3,5-trimethyl-1H-pyrazol-4-yl)-3H-imidazo[4,5-b]pyridin-7-yl]-6,7,8,9-tetrahydro-5H-benzocyclohepten-5-yl}-amide] | < 1 | 1 to 10 | 1 to 10
Cc1nn(C)c(C)c1-c1nc2c(-c3ccc4c(c3)CCCC[C@H]4NC(=O)c3nnc(C(C)(C)C)o3)ccnc2[nH]1 [Compound 121, 5-tert-Butyl-[1,3,4]oxadiazole-2-carboxylic acid {(R)-2-[2-(1,3,5-trimethyl-1H-pyrazol-4-yl)-3H-imidazo[4,5-b]pyridin-7-yl]-6,7,8,9-tetrahydro-5H-benzocyclohepten-5-yl}-amide] | < 1 | 1 to 10 | 10 to 100
